Laboratory results published in patent publication US20260102340A1, “Therapeutic Formulation” (1000739373 Ontario Ltd., priority 2022, published 2026).
Where “and” joins values, the source holds several entries; their conditions need not be identical. Equal values may be shown once.

Experiments:
Assay type in all cases: physicochemical
[1] = Visual solubility of formulations packaged in glass bottles; conditions: for Visual appearance in glass bottles: 5° C.
[2] = Melatonin drug residual (total can content) after storage at 40° C. and 75% relative humidity; conditions: for Initial Melatonin t = 0 (can content) / Initial Melatonin t = 0, mean: 100 μg/50 μL
Procedure: Drug residual measurements (total can content) was determined following storage at 40° C. and 75% relative humidity.
Each canister type was packaged with metering valve 1908 (Aptar™, 50 μl) (MDI batches OZ211003/RJ/A and OZ211003/RJ/C) and metering valves 1904 (Bespak™ 50 μl, with dip tube 1906) (MDI batches OZ211003/RJ/B and OZ211003/RJ/D).

[3] = Quantitative solubility of melatonin in ethanol/HFA 152a (filtered supersaturated solutions, HPLC)
Procedure: Data was obtained at 5° C. (see FIG. 15 and FIG. 16) and T=20° C. (see FIG. 17 and FIG. 18) and presented as % w/w, μg/50 μl and μg/63 μl (see also Table 4).

[4] = 6% w/w ethanol, HFA 152a, Plain Aluminum 14 ml canister, Metering Valve 1904 (with dip tube 1906)
[5] = 6% w/w ethanol, HFA 152a, Plain Aluminum 14 ml canister, Metering Valve 1908
[6] = 6% w/w ethanol, HFA 152a, Plasma Coated 14 ml canister, Metering Valve 1904 (with dip tube 1906)
[7] = 6% w/w ethanol, HFA 152a, Plasma coated 14 ml canister, Metering Valve 1908
[8] = Plain Aluminum canister, Metering Valve 1904 (with dip tube 1906), t = 1 month @ 40° C./75% RH, stored Inverted
[9] = Plain Aluminum canister, Metering Valve 1904 (with dip tube 1906), t = 1 month @ 40° C./75% RH, stored Upright
[10] = Plain Aluminum canister, Metering Valve 1904 (with dip tube 1906), t = 3 month @ 40° C./75% RH, stored Inverted (valve down)
[11] = Plain Aluminum canister, Metering Valve 1904 (with dip tube 1906), t = 3 month @ 40° C./75% RH, stored Upright (valve up)
[12] = Plain Aluminum canister, Metering Valve 1908, t = 1 month @ 40° C./75% RH, stored Inverted
[13] = Plain Aluminum canister, Metering Valve 1908, t = 1 month @ 40° C./75% RH, stored Upright
[14] = Plain Aluminum canister, Metering Valve 1908, t = 3 month @ 40° C./75% RH, stored Inverted (valve down)
[15] = Plain Aluminum canister, Metering Valve 1908, t = 3 month @ 40° C./75% RH, stored Upright (valve up)
[16] = Plasma Coated canister, Metering Valve 1904 (with dip tube 1906), t = 1 month @ 40° C./75% RH, stored Inverted
[17] = Plasma Coated canister, Metering Valve 1904 (with dip tube 1906), t = 1 month @ 40° C./75% RH, stored Upright
[18] = Plasma Coated canister, Metering Valve 1904 (with dip tube 1906), t = 3 month @ 40° C./75% RH, stored Inverted (valve down)
[19] = Plasma Coated canister, Metering Valve 1904 (with dip tube 1906), t = 3 month @ 40° C./75% RH, stored Upright (valve up)
[20] = Plasma coated canister, Metering Valve 1908, t = 1 month @ 40° C./75% RH, stored Inverted
[21] = Plasma coated canister, Metering Valve 1908, t = 1 month @ 40° C./75% RH, stored Upright
[22] = Plasma coated canister, Metering Valve 1908, t = 3 month @ 40° C./75% RH, stored Inverted (valve down)
[23] = Plasma coated canister, Metering Valve 1908, t = 3 month @ 40° C./75% RH, stored Upright (valve up)

## COc1ccc2[nH]cc(CCNC(C)=O)c2c1 [Melatonin]
[1]; 50 μg/50 μl in 5% ethanol and HFA 134a, T=5° C. and T=20° C.
  Visual solubility: confirmed visually
[1]; 100 μg/50 μl (5% w/w ethanol), HFA 152a, 4° C. and 20° C.
  Visual solubility: soluble
[1]; 100 μg/50 μl in 12% w/w ethanol and HFA 134a, T=5° C. and T=20° C.
  Visual solubility in glass bottles: confirmed visually
[1]; 100 μg/50 μl, 6% w/w ethanol in HFA 152a
  Visual appearance in glass bottles: clear solutions
[1]; 200 μg/50 μl, 8% w/w ethanol in HFA 152a
  Visual appearance in glass bottles: clear solutions
[1]; 500 μg/50 μl (15% w/w ethanol), HFA 152a, 4° C. and 20° C.
  Visual solubility: soluble
[2]; [4]
  Initial Melatonin t = 0 (can content): 15408 µg and 15450 µg and 15897 µg
  Initial Melatonin t = 0, mean: 15.6 mg
[2]; [5]
  Initial Melatonin t = 0 (can content): 16200 µg and 15676 µg and 15379 µg
  Initial Melatonin t = 0, mean: 15.8 mg
[2]; [6]
  Initial Melatonin t = 0 (can content): 15417 µg and 15682 µg and 15292 µg
  Initial Melatonin t = 0, mean: 15.5 mg
[2]; [7]
  Initial Melatonin t = 0 (can content): 15430 µg and 15517 µg and 15810 µg
  Initial Melatonin t = 0, mean: 15.6 mg
[2]; MDIs stored valve down
  Residual melatonin at 3-month: 93% to 96
[2]; [8]
  Residual Melatonin: 15162 µg and 14967 µg
  Residual Melatonin % of t = 0: 97 % of t = 0
[2]; [9]
  Residual Melatonin: 14959 µg and 15331 µg
  Residual Melatonin % of t = 0: 97 % of t = 0
[2]; [10]
  Residual Melatonin: 14652 µg and 14318 µg
  Residual Melatonin % of t = 0: 93 % of t = 0
[2]; [11]
  Residual Melatonin: 14721 µg and 14847 µg
  Residual Melatonin % of t = 0: 98 % of t = 0
[2]; [12]
  Residual Melatonin: 15171 µg and 15131 µg
  Residual Melatonin % of t = 0: 98 % of t = 0
[2]; [13]
  Residual Melatonin: 15403 µg and 15581 µg
  Residual Melatonin % of t = 0: 100 % of t = 0
[2]; [14]
  Residual Melatonin: 14920 µg and 14914 µg
  Residual Melatonin % of t = 0: 96 % of t = 0
[2]; [15]
  Residual Melatonin: 15600 µg and 15422 µg
  Residual Melatonin % of t = 0: 100 % of t = 0
[2]; [16]
  Residual Melatonin: 14872 µg and 14984 µg
  Residual Melatonin % of t = 0: 97 % of t = 0
[2]; [17]
  Residual Melatonin: 14944 µg and 15211 µg
  Residual Melatonin % of t = 0: 98 % of t = 0
[2]; [18]
  Residual Melatonin: 14634 µg and 14510 µg
  Residual Melatonin % of t = 0: 94 % of t = 0
[2]; [19]
  Residual Melatonin: 14805 µg and 14789 µg
  Residual Melatonin % of t = 0: 98 % of t = 0
[2]; [20]
  Residual Melatonin: 15024 µg and 14980 µg
  Residual Melatonin % of t = 0: 96 % of t = 0
[2]; [21]
  Residual Melatonin: 15578 µg and 15444 µg
  Residual Melatonin % of t = 0: 100 % of t = 0
[2]; [22]
  Residual Melatonin: 14661 µg and 14791 µg
  Residual Melatonin % of t = 0: 94 % of t = 0
[2]; [23]
  Residual Melatonin: 15461 µg and 15469 µg
  Residual Melatonin % of t = 0: 100 % of t = 0
[2]; all packaging and storage conditions, 40° C./75% RH
  Residual melatonin at 1-month: 96-98%
[2]; stored valve up, both canister types, metering valve 1904 (Bespak with dip tube 1906)
  Residual melatonin at 3-month: 98%
[2]; stored valve up, both canister types, metering valve 1908 (Aptar)
  Residual melatonin at 3-month: 100%
[2]; t = 0, 100 μg/50 μl, 6% w/w ethanol, HFA 152a
  Initial time point residual, % of the target formulation: 97.5±1.7%
[3]; 0% w/w ethanol, T = 5° C.
  *Melatonin μg per 56 mg (63 μl): 8 μg per 56 mg (63 μl)
  Melatonin %(w/w) in filtered supersaturated HFA152a solution: 0.01 %(w/w)
  Melatonin μg per 44 mg (50 μl): 6 μg per 44 mg (50 μl)
[3]; 0% w/w ethanol, T = 20° C.
  *Melatonin μg per 56 mg (63 μl): 9 μg per 56 mg (63 μl)
  Melatonin %(w/w) in filtered supersaturated HFA152a solution: 0.02 %(w/w)
  Melatonin μg per 44 mg (50 μl): 7 μg per 44 mg (50 μl)
[3]; 5% w/w ethanol, T = 5° C.
  *Melatonin μg per 56 mg (63 μl): 121 μg per 56 mg (63 μl)
  Melatonin %(w/w) in filtered supersaturated HFA152a solution: 0.22 %(w/w)
  Melatonin μg per 44 mg (50 μl): 95 μg per 44 mg (50 μl)
[3]; 5% w/w ethanol, T = 20° C.
  *Melatonin μg per 56 mg (63 μl): 159 μg per 56 mg (63 μl)
  Melatonin %(w/w) in filtered supersaturated HFA152a solution: 0.28 %(w/w)
  Melatonin μg per 44 mg (50 μl): 125 μg per 44 mg (50 μl)
[3]; 8% w/w ethanol, T = 5° C.
  *Melatonin μg per 56 mg (63 μl): 270 μg per 56 mg (63 μl)
  Melatonin %(w/w) in filtered supersaturated HFA152a solution: 0.48 %(w/w)
  Melatonin μg per 44 mg (50 μl): 212 μg per 44 mg (50 μl)
[3]; 8% w/w ethanol, T = 20° C.
  *Melatonin μg per 56 mg (63 μl): 395 μg per 56 mg (63 μl)
  Melatonin %(w/w) in filtered supersaturated HFA152a solution: 0.70 %(w/w)
  Melatonin μg per 44 mg (50 μl): 310 μg per 44 mg (50 μl)
[3]; 10% w/w ethanol, T = 5° C.
  *Melatonin μg per 56 mg (63 μl): 339 μg per 56 mg (63 μl)
  Melatonin %(w/w) in filtered supersaturated HFA152a solution: 0.60 %(w/w)
  Melatonin μg per 44 mg (50 μl): 266 μg per 44 mg (50 μl)
[3]; 10% w/w ethanol, T = 20° C.
  *Melatonin μg per 56 mg (63 μl): 456 μg per 56 mg (63 μl)
  Melatonin %(w/w) in filtered supersaturated HFA152a solution: 0.82 %(w/w)
  Melatonin μg per 44 mg (50 μl): 359 μg per 44 mg (50 μl)
[3]; 15% w/w ethanol, T = 5° C.
  *Melatonin μg per 56 mg (63 μl): 588 μg per 56 mg (63 μl)
  Melatonin %(w/w) in filtered supersaturated HFA152a solution: 1.05 %(w/w)
  Melatonin μg per 44 mg (50 μl): 462 μg per 44 mg (50 μl)
[3]; 15% w/w ethanol, T = 20° C.
  *Melatonin μg per 56 mg (63 μl): 817 μg per 56 mg (63 μl)
  Melatonin %(w/w) in filtered supersaturated HFA152a solution: 1.46 %(w/w)
  Melatonin μg per 44 mg (50 μl): 642 μg per 44 mg (50 μl)
